Source: patent publication US8304452B2, “Radical scavenger and active oxygen eliminating agent” (InBiotex Inc., priority 2005, dated 2012)

What was measured:
[1] = tested on: galactosemic cataract model; experiment: Galactosemic cataract model, eye drops (Example 4); format: in vivo, Crj:CD(SD) IGS rats; parameters: key to Pathological findings of lens: Cataract / Pathological findings of lens: Vacuolation of lens epithelium / Pathological findings of lens: Alignment irregularity of lens cortical fiber / Pathological findings of lens: Vacuole structure in outer cortex: −: no change; ±: very slight change; +: slight change; 2+: medium change; 3+: significant change; conditions: for severity of cataract (Cotlier standard score): four times per day, n=10, mean±standard deviation; for Pathological findings of lens: Alignment irregularity of lens cortical fiber / Pathological findings of lens: Cataract / Pathological findings of lens: Vacuolation of lens epithelium / Pathological findings of lens: Vacuole structure in outer cortex: eye balls resected 28 days later; for cases with severe sugar cataract: until day 28 of eye dropping
Procedure: 352 mg of a test substance was weighed and then dissolved in 1.1 mL of 1N NaOH (1 mol/L sodium hydroxide; manufactured by Wako Pure Chemical, Co., Ltd.). After dissolution, it was verified with a pH paper (Duotest under trade name; MACHEREY-NAGEL) that the pH was within an acceptable range (5 to 8). Subsequently, the resulting solution was divided in each volume of 0.03 mL into 30 2-ml tubes (28 such tubes for four tests per day for 7 days+2 such tubes for spare). These were immediately frozen in liquid nitrogen, and stored under freezing (preset at −85° C. within an acceptable range of −90 to −75° C.)/dark conditions. The solutions under storage were defined as stock solution at 320 mg/mL. The stock solutions could be used within 8 days after the preparation. The stock solutions outside the 8-day period after the preparation were disposed. Before eye dropping, the following preparation was done. After the tubes of the stock solution at 320 mg/mL were back to ambient temperature, 0.93 mL of physiological saline was directly added to the tubes for dilution. After preparative dilution, it was verified with a pH paper that the pH of the diluted solutions were within an acceptable range (5 to 8). The resulting eye drop was defined as 1.0% eye drop for use in administration. 0.09 mL of the 1.0% eye drop was divided in a 2-mL tube, to which 0.81 mL of physiological saline was directly added for dilution. Subsequently, it was verified with a pH paper that the pH of the diluted solution was within an acceptable range (5 to 8). The resulting eye drop was defined as 0.1% eye drop, for use in administration. Herein, eye drops of pH outside the acceptable range were never used. The 1.0% eye drop and the 0.1% eye drop practically used for administration were at pH 5.2 to 8.0 and pH 6.2 to 7.4, respectively. As the medium, physiological saline as the control substance was used as it was. Male Crj:CD(SD) IGS rats (SPF) of age 3 weeks were subjected to a 5-day quarantine period and then to an 8-day acclimatization period. By the random extraction method, the rats were grouped in 3 groups, where each group consisted of 10 rats, in a manner such that the average body weight and deviation in each group might be almost equal. After grouping, the rats were fed ad libitum with a powdery feed containing galactose at 50% [a powder feed (Lot No. 050107) of a mixture at equal amounts of CRF-1 powder feed (Lot No. 041104; manufacturer: Oriental Yeast Co., Ltd.) and galactose (D-galactose, Lot No. QYG0223, manufacturer: Yoneyama Pharmaceutical Industry, Co. Ltd.); the mixture was prepared by Oriental Yeast Co., Ltd.; abbreviated as {galactose feed}] hereinafter], as placed in a powder feeder. Additionally, the rats were fed ad libitum with drinking water. The three groups were defined as (A) medium control group, (B) 0.1% 5-S-GAD eye drop group, and (C) 1.0% 5-S-GAD eye drop group for dosing. The administration route was eye dropping as a clinically prospective route. The number of eye dropping per day was four times, while the interval between eye droppings was about 2 hours. The eye dropping was done around 9:30 am (9:00 am to 10:00 am as the defined time period), around 11:30 (11:00 am to 12:00 am as the defined time period), around 13:30 (13:00 pm to 14:00 pm as the defined time period) and around 15:30 pm (15:00 pm to 16:00 pm as the defined time period). Eye dropping was done over 28 days. On day 1, day 7, day 14, day 21 and day 28, ophthalmologic examinations were done about 30 minutes after each last eye dropping. The observation method is as follows. Right eye with eye drop application and left eye without any treatment were observed of their lenses, using a slit lamp (SL-15, Kowa Company, Ltd.). The severity of cataract was evaluated, according to the Cotlier standard (see FIG. 1 in Arch Ophthalmol., (67) 476-82, 1962, which was entitled ‘Development of galactose cataract in the rat, showing biomicroscopic front and slit view’). […]

[2] = DPPH-scavenging activity versus TEMPOL (Example 5); format: biochemical; conditions: 60 μM DPPH, 1 to 1000 μM test substance, 5 minutes; FIG. 5
Procedure: 5-S-GAD or TEMPOL was added to an ethanol solution of 60 μM DPPH to a final concentration of 1 to 1000 μM, for reaction at ambient temperature for 5 minutes. Subsequently, the concentration of the DPPH radical was measured via the absorbance at 517 nm. The DPPH radical concentration in a reaction solution to which PBS(−) instead of the test substance was added, was used as a control. In the same manner as in Example 2, the scavenging ratio (%) of the DPPH radical was calculated and defined as the radical-scavenging activity (see FIG. 5).

[3] = Superoxide anion-scavenging activity, xanthine/xanthine oxidase, lucigenin chemiluminescence (Example 3); format: biochemical; conditions: for Radical-scavenging ratio (%) (superoxide anion-scavenging activity): chemiluminescence AUC over 10 minutes, control = 100, mean, n=2
Procedure: In a 50 mM carbonate buffer (pH 10) containing 200 μM lucigenin, 100 μM xanthine and 1 mU/mL xanthine oxidase reacted together. The chemiluminescence level depending on the generated superoxide anion (O^2−) was assayed with BIOLUMAT (under trade name) (Model type LB 9505, manufactured by EG&G BERTHORD Company) for 10 minutes. The area under the curve indicating the total chemiluminescence over the 10 minutes was calculated. Defining the area under the curve for a group (control) added with PBS(−) instead of the test substance solution at the same amount as that of the solution as 100, the effect of N-β-alanyl-5-S-glutathionyl-3,4-dihydroxyphenylalanine (5-S-GAD) (Table 4) or Carnosine (under trade name) (Table 5) on the increase of chemiluminescence was examined. The suppressive activity thereof was defined as superoxide anion-scavenging activity (%) (mean, n=2; see Table 4, Table 5 and FIG. 3).

SMILES: NCCC(=O)N[C@@H](Cc1cc(O)c(O)c(SC[C@H](NC(=O)CC[C@H](N)C(=O)O)C(=O)NCC(=O)O)c1)C(=O)O [5-S-GAD, N-β-alanyl-5-S-glutathionyl-3,4-dihydroxyphenylalanine]
- abnormality of general states ([1]; 0.1% and 1.0% eye drop groups, before eye dropping and about one hour after the last eye dropping during the eye dropping period): no abnormality of their general states was observed
- severity of cataract (Cotlier standard score) ([1]; 0.1% eye drop, on day 1): 0 ± 0
- severity of cataract (Cotlier standard score) ([1]; 0.1% eye drop, on day 7): 1.9 ± 0.1
- severity of cataract (Cotlier standard score) ([1]; 0.1% eye drop, on day 14): 2.5 ± 0.1
- severity of cataract (Cotlier standard score) ([1]; 0.1% eye drop, on day 21): 3.6 ± 0.1
- severity of cataract (Cotlier standard score) ([1]; 0.1% eye drop, on day 28): 3.9 ± 0.1
- Pathological findings of lens: Alignment irregularity of lens cortical fiber ([1]; 0.1% eye drop): +
- Pathological findings of lens: Cataract ([1]; 0.1% eye drop): 2+
- Pathological findings of lens: Vacuolation of lens epithelium ([1]; 0.1% eye drop): ±
- Pathological findings of lens: Vacuole structure in outer cortex ([1]; 0.1% eye drop): ±
- cases with severe sugar cataract ([1]; 0.1% eye drop): no case with severe sugar cataract occurred until day 28
- severity of cataract (Cotlier standard score) ([1]; 1.0% eye drop, on day 1): 0 ± 0
- severity of cataract (Cotlier standard score) ([1]; 1.0% eye drop, on day 7): 1.8 ± 0.1
- severity of cataract (Cotlier standard score) ([1]; 1.0% eye drop, on day 14): 2.4 ± 0.1
- severity of cataract (Cotlier standard score) ([1]; 1.0% eye drop, on day 21): 3.4 ± 0.1
- severity of cataract (Cotlier standard score) ([1]; 1.0% eye drop, on day 28): 3.8 ± 0.1
- Pathological findings of lens: Alignment irregularity of lens cortical fiber ([1]; 1.0% eye drop): +
- Pathological findings of lens: Cataract ([1]; 1.0% eye drop): 2+
- Pathological findings of lens: Vacuolation of lens epithelium ([1]; 1.0% eye drop): −
- Pathological findings of lens: Vacuole structure in outer cortex ([1]; 1.0% eye drop): ±
- cases with severe sugar cataract ([1]; 1.0% eye drop): No case with severe sugar cataract emerged until day 28
- pathological effect in the galactosemic rat cataract model (in words) ([1]; pathological findings, day 28): apparent ameliorating effect pathologically
- DPPH radical-scavenging action compared with TEMPOL (in words) [2]: excellent DPPH radical-scavenging action compared with TEMPOL
- Radical-scavenging ratio (%) (superoxide anion-scavenging activity) ([3]; 0.1 μM added): −0.75%
- Radical-scavenging ratio (%) (superoxide anion-scavenging activity) ([3]; 1 μM added): 26.03%
- Radical-scavenging ratio (%) (superoxide anion-scavenging activity) ([3]; 10 μM added): 78.28%
- Radical-scavenging ratio (%) (superoxide anion-scavenging activity) ([3]; 100 μM added): 91.19%
- action for scavenging the superoxide anion (O^2−) (in words) ([3]; summary of Table 4, Table 5 and FIG. 3): strong actions for scavenging the superoxide anion (O^2−)
